Results taken from patent publication US5312831A, “Urethanes and ureas that induce cytokine production” (American Cyanamid Company, priority 1993, dated 1994).
Entries after “also recorded” stand apart in the source; their conditions may differ.

How the values were obtained:
[1] = tested on: neutrophils; assay: Oral dosing: neutrophil recovery in 5-FU treated mice; assay type: in vivo, mouse; settings: for Neutrophils/cu. mm.: day 6 after 5-FU 150 mg/kg, 0 dose 178 ± 64
Description: (§1) Circulating Neutrophil Assay--Mice are treated with 5-FU (150 mg/kg) and beginning 24 hrs. later, treated daily with the test compound. Mice are bled daily by retroorbital puncture in heparinized capillary tubes. Circulating WBC counts are determined by Coulter counter. Blood smears are stained with Wright-Geimsa solution and the percentage circulating neutrophils determined by differential counting under a microscope.
(§2) 5-Fluorouracil (5-FU) Induced Neutropenia In Mice--Mice are treated ip with 150 mg/kg of the chemotherapy agent 5-FU which induces a severe loss of neutrophils in the peripheral blood 5-6 days later. Twenty-four hrs. after the dose, treatment with the test compounds is initiated. The effect of the test compounds on recovery of neutrophil progenitor cells in the bone marrow is determined by the CFU-GM assay. The recovery of circulating neutrophils is followed by differential staining of the peripheral blood.
Groups of 5 mice are treated with 150 mg/kg of 5-FU. One day later, daily oral dosing with test compounds begins and continues for 10 days. […]

[2] = tested on: GCSF; assay: Serum GCSF production in mice (NFS-60 bioassay); assay type: in vivo, mouse; settings: for GCSF: 4 hours, 10 mice/group
Description: (§3) Description of Biological Assays Interleukin 6(IL-6) assay for structure function analysis--Test compounds are dissolved in water and administered subcutaneously in 0.2 ml to deliver a dose of 0.1-10 mg/kg. The less soluble compounds are first dissolved in 100% ethanol and then brought to the appropriate concentration in water. Four hours post injection, the mice are bled and the serum is retrieved. The IL-6 dependent cell line 7TDl is used to assay serial dilutions of sera for IL-6 content. 7TDl cells (1×10^4) are placed in microtiter wells and incubated at 37° C. for 72 hours with standard recombinant mouse IL-6 or with dilutions of serum to be tested. Over the last 6 hours, the cells are pulsed with ^3 H-Tdr (μci). Cells are then harvested and the degree of proliferation determined by the uptake of ^3 H-Tdr as measured by liquid scintillation spectrometry. The concentration of IL-6 in serum is calculated from standard curves utilizing recombinant IL-6 from R&D Systems Inc. and are reported in units of IL-6 activity as defined by the manufacturer.
Granulocyte colony stimulating factor (GCSF) assay--A bioassay for GCSF is performed in an identical fashion to the IL-6 assay except that the GCSF dependent cell line NFS-60 is used in place of the IL-6 dependent 7TDI cell line.
Mice (10/group) are given a single subcutaneous injection of test compoun
and bled 4 hours later. GCSF levels in serum are determined by bioassay
using the GCSF dependent cell line NFS60.

[3] = tested on: CSF; assay: Serum colony stimulating factor (CSF) assay in mice; assay type: in vivo, mouse; settings: serum 4 hours after injection
Description: Colony forming assays Granulocyte-Macrophage (CFU-GM)--Mice are treated with 150 mg/kg of 5-Fu and treatment with test compound begins 24 hrs. later. On consecutive days, mice are killed by cervical dislocation and the femurs removed under sterile conditions. Femurs are flushed with 1 ml of ice cold medium (Iscove's supplemented with 20% FCS, 1% penicillin-streptomycin, 1% glutamine and 5×10^-5 M 2-mercaptoethanol). Bone marrow cells (5×10^5) are then plated in 12×75 mm tissue culture plates in 3 ml of warm ararose (3%) in Iscove's medium with 100 Units/ml of recombinant mouse GM-CSF purchased from Genzyme (Boston, Mass.). Plates are incubated for 7 days at 37° C. in 5% CO2. After 7 days, colonies of 50 cells or greater are enumerated under a dissecting microscope.
Bone marrow cells are prepared as described above for the CFU-GM assay. The cells are then incubated in soft agar with an 0.3% final concentration of serum taken from mice 4 hours after injection with test compounds. After 7 days of incubation at 37° C., the number of colony forming (CFU) cells per 10^5 plated bone marrow cells is determined by counting colonies of more than 50 cells under a dissecting microscope. The data are reported as CFU/10^5 bone marrow cells.

[4] = tested on: IL-6; assay: Serum IL-6 production in mice after single s.c. injection (7TD1 bioassay); assay type: in vivo, mouse; settings: serum 4 h post injection
Description: as §3

[5] = tested on: GCSF; assay: Serum GCSF in 5-FU treated monkeys; assay type: in vivo, cynomolgous monkeys
Description: Groups of 3 cynomolgous monkeys are treated with 5FU at 125 mg/kg and
beginning 24 hours later treated with test compound s.c. at 0.05 mg/kg.
The data reported are from sera taken 4 hours after test compound

[6] = tested on: neutrophils; assay: Neutrophil recovery in 5-FU treated mice; assay type: in vivo, mouse; settings: for Neutrophils/cu. mm.: day 7 post 5FU 150 mg/kg, 10 mice/group, vehicle 157 ± 52
Description: as §1, §2
*Data from 10 mice/group on day 7 post treatment with 150 mg/kg of 5FU.
Beginning 24 hrs. after 5FU dose, mice were treated daily with test
compound at concentrations indicated. Neutrophil count for normal mice (n
**Mice treated with 5FU and vehicle only.

CCCCCCC(=O)N[C@@H](C(=O)O)[C@@H](C)OC(=O)N[C@@H](CCC[C@@H](N)C(=O)O)C(=O)N[C@H](C)C(=O)O [Example 28, [R-(R*,R*)]-N-(R)-6-carboxy-N^2-[[2-carboxy-1-methyl-2-[(1-oxoheptyl)amino]ethoxy]carbonyl]-L-lysyl]-D-Alanine]
Neutrophils/cu. mm. ([1]; 0.1 mg/kg daily oral): 81 ± 35 /cu. mm | Neutrophils/cu. mm. ([1]; 1 mg/kg daily oral): 765 ± 209 /cu. mm | Neutrophils/cu. mm. ([1]; 10 mg/kg daily oral): 1391 ± 350 /cu. mm | neutrophil recovery in 5-FU treated mice when given orally (in words) ([1]; oral): active in accelerating neutrophil recovery | GCSF ([2]; 1.56 μg/kg single s.c.): 442 ± 52 pg/mL | GCSF ([2]; 3.12 μg/kg single s.c.): 470 ± 59 pg/mL | GCSF ([2]; 6.25 μg/kg single s.c.): 644 ± 267 pg/mL | GCSF ([2]; 12.50 μg/kg single s.c.): 1342 ± 289 pg/mL | GCSF ([2]; 25.00 μg/kg single s.c.): 3352 ± 907 pg/mL | GCSF ([2]; 50.00 μg/kg single s.c.): 1249 ± 138 pg/mL | GCSF induction in the serum of mice (in words) ([2]; injected mice): induce GCSF in the serum of injected mice | CSF production, CFU/100,000 Bone Marrow Cells ([3]; 0.1 mg/kg): 95 ± 16 CFU/100,000 Bone Marrow Cells | CSF production, CFU/100,000 Bone Marrow Cells ([3]; 1.0 mg/kg): 101 ± 8 CFU/100,000 Bone Marrow Cells | IL-6 ([4]; 0.1 mg/kg s.c.): 4802 ± 804 U/ml | IL-6 ([4]; 1.0 mg/kg s.c.): 3844 ± 482 U/ml | IL-6 ([4]; 10.0 mg/kg s.c.): 1718 U/ml | Serum GCSF ([5]; 0.05 mg/kg s.c., 5FU 125 mg/kg, sera 4 hours after treatment, 5-FU only 0): 3962 ± 2178 pg/mL | GCSF production in the serum of 5-FU treated primates (in words) ([5]; monkey, in vivo): induces IL-6 and GCSF production | Neutrophils/cu. mm. ([6]; 1.56 μg/kg daily): 722 ± 199 /cu. mm. | Neutrophils/cu. mm. ([6]; 3.12 μg/kg daily): 424 ± 115 /cu. mm. | Neutrophils/cu. mm. ([6]; 6.25 μg/kg daily): 758 ± 249 /cu. mm. | Neutrophils/cu. mm. ([6]; 12.50 μg/kg daily): 1314 ± 267 /cu. mm. | Neutrophils/cu. mm. ([6]; 25.00 μg/kg daily): 1804 ± 408 /cu. mm. | Neutrophils/cu. mm. ([6]; 50.00 μg/kg daily): 1716 ± 284 /cu. mm. | Neutrophils/cu. mm. ([6]; 100.00 μg/kg daily): 2613 ± 364 /cu. mm. | neutrophil recovery in 5-FU treated mice (in words) ([6]; mouse, in vivo): enhances the recovery of peripheral blood neutrophils; also recorded: induce neutrophil recovery in 5-FU treated mice
